The record followed here is patent publication US20100222421A1, “Usage of Baicalein in the Preparation of a Pharmaceutical Composition for the Treatment of Traumatic Brain Injury” (National Defense Medical Center, priority 2009, published 2010).

The test system of this experiment is degenerating neurons (FJB-positive cells) in cortical contusion margin. Description: Neuronal degeneration, FluoroJade B (FJB) staining. Type of experiment: in vivo, rat. The note with it: single-dose 30 mg kg^-1 i.p., 1 day post-injury, P<0.05. On the procedure: A previously described CCI injury procedure was utilized (Chen et al., 2003). Male Sprague-Dawley rats, which have body weight of 250-300 g, were anaesthetized with sodium pentobarbital (i.p.; 50 mgkg^−1; Rhone Merieux, Harlow, UK) and placed in a stereotaxic frame. A 5-mm craniotomy was performed over the left parietal cortex, centered on the coronal suture and 3 mm lateral to the sagittal suture. Considerable care was taken to avoid injury to the underlying dura. Injury was made using a pneumatic piston with a rounded metal tip (2.5 mm diameter) that was angled 22.5° C. to the vertical so that the tip was perpendicular with the brain surface at the centre of the craniotomy. A velocity of 4 ms^−1 and a deformation depth 2 mm below the dura were used. The bone flap was immediately replaced and sealed, and the scalp was closed with sutures. Body temperature was monitored throughout the surgery by a rectal probe; temperature was maintained at 37.0±0.5° C. using a heated pad. […] Testing after injury was as follows: (1) real-time quantitative RT-PCR analysis for TNF-α, IL-1β and IL-6 mRNA expression at 6 h post-injury (n=7 for each group); (2) FluoroJade B (FJB) staining, TNF-α, IL-1β and IL-6 immunohistochemistry, as well as ELISA at 24 h post-injury to assess degenerative neurons and to determine cytokine expression (n=7 for each group). […]

`O=c1cc(-c2ccccc2)oc2cc(O)c(O)c(O)c12` [baicalein]: the “reduction of the number of FJB-positive cells versus vehicle” value was found to be 31%.
